# Reference: patent US8399514B2, “Treatment for multiple sclerosis” (Biogen Idec MA Inc., priority 2007, dated 2013)
# Tests used:
# Nrf2 [1] = test: Western blot of Nrf2 and NQO1 in DLD1 cells treated with DMF or MMF; format: cell-based, human; settings: DLD1 cells in culture; 5, 15, or 50 μM; 16 hours
# Method: Human colon carcinoma DLD1 cells were treated with DMF or MMF at indicated concentrations (5, 15, or 50 μM) for 16 hours, rinsed with PBS, and harvested into reducing SDS sample buffer. The lysates were subjected to SDS PAGE and the separated proteins were electrophoretically transferred onto nitrocellulose membranes for Western blot analysis. To detect Nrf2 and NQO1, the membranes were incubated with the respective primary antibodies overnight at 4° C., washed, and incubated with peroxidase-conjugated secondary antibodies followed by the chemiluminescent peroxidase substrate. Detection of the target protein band luminescence and image acquisition were done using CCD-equipped imaging station Kodak2000R.
# Nrf2 [2] = test: RNAi (siRNA Nrf2/Keap1) experiment in DLD1 cells stimulated with DMF, Western blot of Nrf2 and NQO1; format: cell-based, human; settings: 30 μM DMF for 40 hours
# Method: DLD1 cells were grown in MEM supplemented with 10% fetal bovine serum. The cells were transfected with the indicated siRNA's using the Lipofectamine reagent (Invitrogen) according to the manufacturer's instructions and 30 hrs later stimulated with 30 μM DMF for 40 hours. The cells were harvested and processed for Western blotting analysis of Nrf2 and NQO1 levels as described in Example 1. Sources and the identity of reagents used in Examples 1 and 2 are specified Table 3 below: […]
# Nrf2 [3] = test: Nrf2 immunohistochemistry of spinal cord tissues in MOG 35-55 induced EAE; format: in vivo; settings: EAE mice, oral gavage twice a day from day 3 p.i., DMF 5 or 15 mg/kg, MMF 15 mg/kg
# Method: For induction of EAE, mice received s.c. injections in the flanks and tail base of 50 μg MOG 35-55 peptide in PBS emulsified in an equal volume of complete Freund's adjuvant (CFA) containing Mycobacterium tuberculosis H37RA (Difco, Detroit Mich., USA) at a final concentration of 0.5 mg/ml. Two injections of pertussis toxin (List Biological Laboratories Inc., California, USA; […] i.p) were given on days 0 and 2.
# DMF and MMF was diluted in 200 μl 0.08% Methocel/H2O as vehicle and administered by oral gavage starting from day 3 post immunization (p.i) until termination. Each treatment group consisted of 8 animals: vehicle alone as a negative control, 5 mg/kg body weight DMF twice a day, 15 mg/kg body weight DMF twice a day, 15 mg/kg body weight MMF twice a day. The compounds were obtained via Fumapharm AG. Oral gavage was used to ensure exact dosing and to avoid compound degradation.
# Spinal cord tissues were fixed in 4% paraformaldehyde and embedded in paraffin. […]
# Immunohistochemistry was performed using the Dako autostainer as follows. […] The rabbit anti Nrf2 antibody C-20 (sc-722, Santa Cruz Biotechnology) was added at a 1:250 dilution in Dako Diluent with Background Reducing Components (Dako # S3022) C-20 antibody was detected using the Envision anti rabbit labeled polymer-HRP (Dako #K4003) and DAB (Vector Labs #SK-4100) was used as the chromogenic substrate. […]
SMILES,"activation of Nrf2 (Nrf2 and NQO1 protein levels, Western blot, FIG. 1) (Nrf2 [1])","DMF-induced upregulation of NQO1, dependence on Nrf2 (FIG. 2) (Nrf2 [2]; DLD1 cells transfected with Nrf2 or Keap1 siRNA)",Nrf2 agonism: cellular accumulation of Nrf2 and Nrf2 target gene expression (FIG. 2) (Nrf2 [2]; DLD1 cells),"activation of Nrf2 in vivo (Nrf2 immunostaining, morphometric analysis, FIGS. 3 and 4) (Nrf2 [3])"
COC(=O)/C=C/C(=O)OC [DMF],potent activators of Nrf2,upregulation of NQO1 requires Nrf2,acts as an Nrf2 agonist,activation of Nrf2 in vivo
COC(=O)/C=C/C(=O)O [MMF],potent activators of Nrf2,–,–,activation of Nrf2 in vivo
